The test system of data set [1] is IL-2 production in human whole blood. The following applies: for IC50: read-out: WB/IL-2 (IC50).
In data set [2] the test system is IFN-g production in human whole blood. The class given is cell-based. The following applies: for IC50: read-out: WB/IFNg (IC50).
Data set [3] relates to IL-2R on T cells in human whole blood. The class given is cell-based.
Data set [4] deals with CD40L on T cells in human whole blood. The class given is cell-based.
For the next data set, the target named is T1, human Kv1.1 (HEK293) (Homo sapiens, UniProt Q09470).
T1 construct: expressed in transfected cells; host or cells: HEK293
T1 sequence (Q09470 whole entry): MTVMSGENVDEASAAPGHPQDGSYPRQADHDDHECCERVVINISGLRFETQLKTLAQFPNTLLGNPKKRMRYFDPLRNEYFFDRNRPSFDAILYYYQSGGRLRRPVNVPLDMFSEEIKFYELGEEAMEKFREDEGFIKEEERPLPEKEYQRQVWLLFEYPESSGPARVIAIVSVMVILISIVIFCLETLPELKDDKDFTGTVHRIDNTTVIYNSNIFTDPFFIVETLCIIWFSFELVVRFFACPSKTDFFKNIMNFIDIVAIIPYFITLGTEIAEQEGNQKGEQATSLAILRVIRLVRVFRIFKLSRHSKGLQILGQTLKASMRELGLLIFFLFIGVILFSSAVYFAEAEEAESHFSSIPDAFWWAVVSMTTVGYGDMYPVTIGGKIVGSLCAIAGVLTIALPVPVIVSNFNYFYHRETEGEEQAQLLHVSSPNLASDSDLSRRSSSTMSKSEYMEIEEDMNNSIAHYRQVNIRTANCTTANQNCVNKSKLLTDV
It counts as cell-based.

Another data set concerns the target T2, human Kv1.3 (CHO) (Homo sapiens, UniProt P22001).
T2 construct: expressed in transfected cells; host or cells: CHO
The class given is cell-based.

The target in another data set is human Kv1.3 channel (Homo sapiens, UniProt P22001). The class given is cell-based.
Sequence of human Kv1.3 channel (P22001 whole entry): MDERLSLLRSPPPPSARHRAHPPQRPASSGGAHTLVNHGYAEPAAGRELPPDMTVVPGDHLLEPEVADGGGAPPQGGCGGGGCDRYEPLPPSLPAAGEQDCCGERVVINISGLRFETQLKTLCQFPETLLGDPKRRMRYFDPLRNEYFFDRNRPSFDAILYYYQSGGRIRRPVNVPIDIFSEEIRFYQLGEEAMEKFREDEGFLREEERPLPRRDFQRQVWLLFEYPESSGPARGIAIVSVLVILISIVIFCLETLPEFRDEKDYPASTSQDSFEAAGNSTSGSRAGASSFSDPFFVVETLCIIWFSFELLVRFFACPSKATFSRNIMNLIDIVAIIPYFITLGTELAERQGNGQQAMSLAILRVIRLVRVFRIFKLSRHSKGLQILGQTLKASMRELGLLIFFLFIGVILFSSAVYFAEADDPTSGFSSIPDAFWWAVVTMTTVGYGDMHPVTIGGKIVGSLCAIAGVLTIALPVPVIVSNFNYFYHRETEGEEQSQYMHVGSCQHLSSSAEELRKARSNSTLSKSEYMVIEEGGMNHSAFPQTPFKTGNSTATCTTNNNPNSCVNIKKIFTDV

“Also recorded” adds a separate entry of the source. Bridge positions count the residues as written; N and C are the ends. Ends that are not written are not given here. Peptide text beside a SMILES is read from it.

T2 sequence (P22001 whole entry): as above

“SEQ ID No: 4989: OSK1 analog without beta strand 1 (labeled des 1-7), Table 42 (CKISRQCLKPCKDAGMRFGKCMNGKCHC-NH2; ends and bridges not checked)”: the “blockade of the whole blood cytokine response (IL-2, IFNg), in words” value (from here on “blockade”) in data set [1] was “still retain activity in blocking inflammation”.

As for “GVIINVKCKISRQCLKPCKDAGMRFGKCMNGKCHCGGG [compound 1274]”, the results for the IC50 in data set [1] and in data set [2] were 2.64 nM and 3.64 nM, respectively.

As for “IbTx: BKCa channel inhibitor peptide, Bachem (QFTDVDCSVSKECWSVCKDLFGVDRGKCMGKKCRCYQ; Definition of Artificial Sequence: Synthetic peptide) [reference compound]”, the “thapsigargin-induced IL-2 production (in words)” value in data set [1] is recorded as “no significant activity”. The “thapsigargin-induced upregulation of the IL-2R on T cells (in words)” value in data set [3] is listed as “no significant activity”. In addition, in data set [2], the “thapsigargin-induced IFN-g production (in words)” value is “no significant activity”. For the same molecule, the “thapsigargin-induced upregulation of CD40L on T cells (in words)” value in data set [4] is on record as “no significant activity”.

“GVIINVKCKISRQCLKPCKDAGMRFGKCMNGKCHCYPK [compound 298]”: the IC50 in data set [1] was 0.639 nM; in data set [2], 0.923 nM.

“GGGGSGVIINVKCKISRQCLEPCKKAGMRFGKCMNGKCHCTPK [compound 1395]”: the IC50 in data set [1] was 1.36 nM; in data set [2], 2.2 nM.

Turning to “GIINVKCKISAQCLKPCRDAGMRFGKCMNGKCACTPK [compound 4916]”, the IC50 is 1.5 nM in data set [1] and 2.24 nM in data set [2].

As to “GVIINVKCKISRQCLKPCKDAGMRFGKCMNGKCHC [compound 1396]”, the IC50 in data set [1] amounted to 3.94 nM; in data set [2], 6.99 nM.

Regarding “Fc-L10-ShK[2-35]: human IgG1 Fc fused via 10 amino acid linker to ShK[2-35]”, the “stability in whole blood” value in data set [1] was “stable in whole blood at 37 °C for up to 48 hours”. Further, the “thapsigargin-induced upregulation of the IL-2R on T cells (in words)” value in data set [3] is reported as “blocked”. The “thapsigargin-induced IFN-g production (in words)” value in data set [2] is “suppressed; also recorded: blocked”. Moreover, the “thapsigargin-induced upregulation of CD40L on T cells (in words)” value in data set [4] is recorded as “blocked”.

On to “GVIINVKCKISRQCLKPCKDAGMRFGKCMNGKCACTPK [compound 4990]”, for which the results for the IC50 in data set [1] and in data set [2] were 65.5 nM and 26.6 nM, respectively.

Take `CC[C@H](C)[C@@H]1NC(=O)[C@H](CCCCN)NC(=O)[C@@H](NC(=O)[C@H](CCCCN)NC(=O)[C@@H](NC(=O)[C@H](CC(N)=O)NC(=O)[C@@H](NC(=O)[C@@H](NC(=O)[C@@H](NC(=O)CN)C(C)C)[C@@H](C)CC)[C@@H](C)CC)C(C)C)CSSC[C@@H]2NC(=O)[C@H](CCCCN)NC(=O)CNC(=O)[C@H](Cc3ccccc3)NC(=O)[C@H](CCCNC(=N)N)NC(=O)[C@H](CCSC)NC(=O)CNC(=O)[C@H](C)NC(=O)[C@H](CCCCN)NC(=O)[C@H](CCCCN)NC(=O)[C@@H]3CSSC[C@@H](C(=O)N[C@H](C(=O)N4CCC[C@H]4C(=O)N[C@@H](CCCCN)C(=O)O)[C@@H](C)O)NC(=O)[C@H](Cc4c[nH]cn4)NC(=O)[C@H](CSSC[C@H](NC(=O)[C@H](CCC(N)=O)NC(=O)[C@H](CCCNC(=N)N)NC(=O)[C@H](CO)NC1=O)C(=O)N[C@@H](CC(C)C)C(=O)N[C@@H](CCC(=O)O)C(=O)N1CCC[C@H]1C(=O)N3)NC(=O)[C@H](CCCCN)NC(=O)CNC(=O)[C@H](CC(N)=O)NC(=O)[C@H](C)NC2=O` [OSK1[Ala-29]] (H-GVIINVKCKISRQCLEPCKKAGMRFGKCANGKCHCTPK-OH; disulfide 8-28, 14-33, 18-35): the “selectivity over Kv1.1 by IonWorks (in words)” value on human Kv1.1 (HEK293) was “improved selectivity over Kv1.1”. The “potency relative to cyclosporin A in blocking the cytokine response” value in data set [1] is on record as “several orders of magnitude more potent”. On human Kv1.3 (CHO), the “inhibition of the Kv1.3 current by IonWorks (in words)” value is given as “potent inhibition of the Kv1.3 current”.

Take “GVIINVKCKISAQCLKPCKDAGMRFGKCMNGKCHCTPK [compound 1392]”: the IC50 was 0.041 nM in data set [1] and 0.092 nM in data set [2].

Regarding “Fc-L-KTX1: bacterially expressed Fc-linker-KTX1 peptibody”, the “block of human Kv1.3 current (in words)” value with human Kv1.3 channel is recorded as “concentration dependent block”.

For “GVIINVKCKISRQCLKPCKDAGMRFGKCMNGKCHCTPK [compound 296]”, the IC50 in data set [1] amounted to 1.58 nM; in data set [2], 1.32 nM.

B1: MGGHHHHHHGGGPSVFLFPPKPKDTLMISRTPEVTCVVVDVSHEDPEVKFNWYVDGVEVHNAKTKPREEQYNSTYRVVSVLTVLHQDWLNGKEYKCKVSNKALPAPIEKTISGGGGSGGGGSGVIINVKCKISRQCLEPCKKAGMRFGKCMNGKCHCTPK (protein)
chain: MGGHHHHHHGGGPSVFLFPPKPKDTLMISRTPEVTCVVVDVSHEDPEVKFNWYVDGVEVHNAKTKPREEQYNSTYRVVSVLTVLHQDWLNGKEYKCKVSNKALPAPIEKTISGGGGSGGGGSGVIINVKCKISRQCLEPCKKAGMRFGKCMNGKCHCTPK
B1: the figures for the IC50 in data set [1] and in data set [2] were 38.5 nM and 55.2 nM, respectively.

B2: FcLoop-L2-OsK1-L2: OsK1 inserted into the human IgG1 Fc loop with 2-Gly linkers (protein)
chain: MDKTHTCPPCPAPELLGGPSVFLFPPKPKDTLMISRTPEVTCVVVDVSHEDPEVKFNWYVDGVEVHNAKTKPREEQYNSTYRVVSVLTVLHQDWLNGKEYKCKVSNKALPAPIEKTISKAKGQPREPQVYTLPPSRDELGGGVIINVKCKISRQCLEPCKKAGMRFGKCMNGKCHCTPKGGTKNQVSLTCLVKGFYPSDIAVEWESNGQPENNYKTTPPVLDSDGSFFLYSKLTVDKSRWQQGNVFSCSVMHEALHNHYTQKSLSLSPGK
modifications: Definition of Artificial Sequence: Synthetic protein
For the molecule B2, in data set [1], the “IC50 values, whole blood cytokine response” value was “pM range” and the “blockade” value is given as “potent blockade of the whole blood cytokine response”.

B3: FcLoop-L2-ShK-L2: ShK inserted into the human IgG1 Fc loop with 2-Gly linkers (protein)
chain: MDKTHTCPPCPAPELLGGPSVFLFPPKPKDTLMISRTPEVTCVVVDVSHEDPEVKFNWYVDGVEVHNAKTKPREEQYNSTYRVVSVLTVLHQDWLNGKEYKCKVSNKALPAPIEKTISKAKGQPREPQVYTLPPSRDELGGRSCIDTIPKSRCTAFQCKHSMKYRLSFCRKTCGTCGGTKNQVSLTCLVKGFYPSDIAVEWESNGQPENNYKTTPPVLDSDGSFFLYSKLTVDKSRWQQGNVFSCSVMHEALHNHYTQKSLSLSPGK
modifications: Definition of Artificial Sequence: Synthetic protein
For the molecule B3, in data set [1], the “IC50 values, whole blood cytokine response” value is “pM range” and the “blockade” value is “potent blockade of the whole blood cytokine response”.

The record behind these values is US7825093B2 (priority 2006, dated 2010).
